Values of other authors as cited in patent US20180110792A1, “COMPOSITIONS AND METHODS FOR INHIBITING GLYCATION REACTIONS” (Access Business Group International LLC, priority 2016, published 2018).

Details: human, in vivo

SMILES: N=C(N)NN [aminoguanadine]
- adverse effects in clinical trials: demonstrated adverse effects in clinical trials
